Data reported in BindingDB's records for patent US10011627 (Youngene Therapeutics, 2018).
pIC50: −log10 of the molar value.

Columns and labels:
[1] = target: T1, Sodium/glucose cotransporter 2 (Homo sapiens, UniProt P31639); test: Inhibitory Activity Assay
T1 sequence (P31639 whole entry): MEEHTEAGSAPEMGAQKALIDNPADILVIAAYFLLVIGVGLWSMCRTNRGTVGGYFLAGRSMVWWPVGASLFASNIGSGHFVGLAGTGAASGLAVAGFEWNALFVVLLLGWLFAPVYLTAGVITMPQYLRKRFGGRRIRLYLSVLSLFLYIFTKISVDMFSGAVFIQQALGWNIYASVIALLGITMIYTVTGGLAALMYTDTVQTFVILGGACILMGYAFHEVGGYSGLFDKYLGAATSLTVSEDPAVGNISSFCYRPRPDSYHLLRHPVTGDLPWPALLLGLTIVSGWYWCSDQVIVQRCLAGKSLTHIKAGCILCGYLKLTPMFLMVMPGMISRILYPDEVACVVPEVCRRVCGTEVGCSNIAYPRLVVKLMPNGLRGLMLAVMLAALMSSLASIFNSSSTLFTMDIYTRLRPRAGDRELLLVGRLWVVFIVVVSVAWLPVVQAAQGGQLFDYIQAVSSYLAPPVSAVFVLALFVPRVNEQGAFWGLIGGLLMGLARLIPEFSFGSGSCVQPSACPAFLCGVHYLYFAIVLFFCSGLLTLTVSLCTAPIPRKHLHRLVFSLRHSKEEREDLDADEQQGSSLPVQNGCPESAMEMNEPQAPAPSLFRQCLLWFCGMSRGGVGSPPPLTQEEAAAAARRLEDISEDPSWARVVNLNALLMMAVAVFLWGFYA
Procedure: (§1) The following method was used to determine the inhibitory activity of the compounds of the present invention on SGLT1 and SGLT2. The experimental method is summarized as follows:SGLT1 and SGLT2 transiently transferred HEK293 cells were seeded in a 96-well plate. The density of the cells was 1-1.5×104. The cells were cultured at 37° C. and 5% CO2 for 48 hours, and then washed twice with 200 μL sodium-free buffer. 90 μL sodium-containing buffer of the test compound at different concentrations was added to the well. Each test compound was repeated in three wells for each concentration. The cells were cultured at 37° C. for 15 minutes, then 10 μL (in number 0.1 μCi [14C]) Methyl α-D-glucopyranoside was added to each well of the 96-well plate. The cells were further cultured at 37° C. for 2 hours, then the supernatant was discarded. The cells were washed twice with pre-chilled sodium-free buffer and then dissolved in 100 μL NaOH (200 mM). 100 μL scintillation solution was added, and mixed well. Scintiloscope was used for the quantitative detection of 14C.

[2] = target: T2, Sodium/glucose cotransporter 1 (Homo sapiens, UniProt P13866); test: Inhibitory Activity Assay
T2 sequence (P13866 whole entry): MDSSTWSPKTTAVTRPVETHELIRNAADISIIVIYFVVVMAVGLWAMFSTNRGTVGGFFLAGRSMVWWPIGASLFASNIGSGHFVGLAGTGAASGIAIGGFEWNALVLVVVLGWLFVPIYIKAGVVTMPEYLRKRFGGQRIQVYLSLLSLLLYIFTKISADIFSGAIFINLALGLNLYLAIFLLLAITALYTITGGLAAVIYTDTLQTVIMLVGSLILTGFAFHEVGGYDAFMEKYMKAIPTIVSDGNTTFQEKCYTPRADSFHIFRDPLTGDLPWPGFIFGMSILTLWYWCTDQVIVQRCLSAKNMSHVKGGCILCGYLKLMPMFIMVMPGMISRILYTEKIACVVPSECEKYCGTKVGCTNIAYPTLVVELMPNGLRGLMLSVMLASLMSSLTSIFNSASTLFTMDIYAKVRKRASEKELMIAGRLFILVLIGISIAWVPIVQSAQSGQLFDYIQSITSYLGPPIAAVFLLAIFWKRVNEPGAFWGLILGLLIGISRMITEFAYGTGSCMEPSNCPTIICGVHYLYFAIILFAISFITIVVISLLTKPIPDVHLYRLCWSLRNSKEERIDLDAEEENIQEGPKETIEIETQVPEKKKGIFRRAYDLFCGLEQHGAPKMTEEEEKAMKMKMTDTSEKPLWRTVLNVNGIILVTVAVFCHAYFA
Procedure: as §1

pIC50 [1] | pIC50 [2] | SMILES
8.37 | 6.52 | OC[C@H]1S[C@@H](c2ccc(C3CC3)c(Cc3ccc4c(c3)OCCO4)c2)[C@H](O)[C@@H](O)[C@@H]1O [US10011627, 5]
8.59 | 7.00 | Cc1cc(O)c([C@@H]2S[C@H](CO)[C@@H](O)[C@H](O)[C@H]2O)cc1Cc1ccc2c(c1)OCCO2 [US10011627, 6]
